Reference: PMC6136660 (Steroids, 2018)
Where two headings read alike, the source gives them in different places.

Experiments:
[1] = SAD food effect cohort (8 mg/kg with high fat/high calorie meal) pharmacokinetics; assay type: in vivo, human
Protocol: In the SAD part of the study, 7 cohorts were to be enrolled. Eight subjects were assigned to each of Cohorts 1 to 5 and 7 and received a single oral dose of vamorolone (planned as 0.1 mg/kg, 0.3 mg/kg, 1.0 mg/kg, 3.0 mg/kg, 8.0 mg/kg, and 20.0 mg/kg, respectively) or placebo under fasted conditions. Six subjects were assigned to Cohort 6 and were administered a single oral dose of 8.0 mg/kg vamorolone within 30 min of beginning a high fat/high calorie meal.
Subjects in Cohorts 1 through 5 and 7 were randomized to receive vamorolone or placebo in a 3:1 ratio (6 subjects received vamorolone, and 2 subjects received placebo) sequentially. In Cohort 1, 3 sentinel subjects were administered vamorolone or placebo in a 2:1 ratio. Following a review of sentinel safety and tolerability data (including reported adverse events [AEs], clinical laboratory tests, vital signs, and electrocardiograms [ECGs]), the remaining 5 subjects were randomized to receive vamorolone or placebo in a 4:1 ratio and dosed no earlier than 48 h after sentinel dosing. In Cohorts 2 to 5, and 7, subjects were administered vamorolone or placebo in a 3:1 ratio. Once Cohort 5 was completed and safety data had been reviewed, subjects in Cohort 6 were administered a single oral dose of 8.0 mg/kg vamorolone within 30 min of beginning a standard high fat/high calorie meal.

[2] = Clinical safety (treatment-emergent adverse events, MTD, NOAEL), MAD; assay type: in vivo
Protocol: The MAD part of the study was initiated after a review of safety and PK data from SAD cohorts 1 to 6. In the MAD part, 4 cohorts containing 8 subjects each were randomized to receive vamorolone or placebo, in a 3:1 ratio, once daily (QD) for 14 days. The duration of dosing in the MAD part was determined based on the PK data from the SAD part. In each cohort, 3 sentinel subjects were administered vamorolone or placebo, in a 2:1 ratio.
After completion of all scheduled safety follow-up visits for a given cohort, the SRC reviewed all available PK and safety data (AEs, physical examination findings, ECGs, vital signs, and clinical laboratory tests) in a blinded manner for the completed cohort prior to making a decision to escalate to the next higher dose level.
Dose escalation in the MAD part was to proceed according to protocol until the MTD was identified. The dose escalation stopping criteria, as listed above in the SAD section, comprised the halting rules for the MAD part. If any of these criteria were met during the 14-day dosing duration in the MAD part, dosing in that cohort was to be halted and no further dose escalation was to occur. If AEs/SAEs occurred more frequently in subjects treated with vamorolone compared to subjects treated with placebo, the SRC was to determine if dose escalation could continue. If dose escalation was terminated, the remaining cohorts could be enrolled to evaluate the safety and PK effects of vamorolone for dose levels between the previously tolerated dose and the dose level at which dose escalation was terminated. Once safety data from additional cohort(s) was assessed, the MTD was defined as the dose level below the dose at which the SRC determined there was an unacceptable risk to subjects.

[3] = system: blood glucose (insulin resistance biomarker); experiment: Blood glucose / fasting insulin, MAD; assay type: in vivo, human; conditions: for Blood glucose: mean±SEM
Protocol: All biomarkers were analyzed using standard immunoassays by PRA.
Glucocorticoids were originally named as such due to their potent and acute effects on glucose metabolism, where liver and muscle pathways for insulin signaling are rapidly and profoundly affected, creating a state of insulin resistance. […] Fasting insulin and glucose levels were assessed in all dose groups in the vamorolone Phase 1 SAD and MAD.

[4] = human, plasma, single oral 8 mg/kg, fed, geometric mean (%CV)

## C[C@@H]1C[C@H]2[C@@H]3CCC4=CC(=O)C=C[C@]4(C)C3=CC[C@]2(C)[C@@]1(O)C(=O)CO [vamorolone]
[1]; 8 mg/kg, fed vs fasted
  AUC(0-t) ratio of the geometric means: 2.54
  AUC(inf) ratio of the geometric means: 2.82
  Cmax ratio of the geometric means: 2.53
  increase in bioavailability with a 40 g fat meal: 250%
[1]; 8 mg/kg, high calorie/high fat meal (40 g fat) vs fasted
  increase in Cmax, AUC(0-t), and AUC(inf) under fed conditions: 2.5 fold
[1]; 8 mg/kg, high calorie/high fat meal vs fasted
  increase in Tmax under fed conditions: ~ 2 fold
[1]; [4]
  AUC(0-inf): 10200 ng·h/mL
  AUC(0-t): 10100 ng·h/mL
  Cmax: 1820 ng/mL
[1]; human, plasma, single oral 8 mg/kg, fed, geometric mean (%CV), read-out: CL/F (converted)
  CL/F: 13.2 mL/min/kg
[1]; human, plasma, single oral 8 mg/kg, fed, geometric mean (%CV), read-out: Vz/F
  Vd/F: 2.67 L/kg
[1]; human, plasma, single oral 8 mg/kg, fed, geometric mean (%CV), read-out: t½ (converted)
  half-life: 2.35 h
[1]; human, plasma, single oral 8 mg/kg, fed, geometric mean (%CV), read-out: λz (converted)
  k el: 8.19e-05 s⁻¹
[1]; human, plasma, single oral 8 mg/kg, fed, median
  Tmax: 4 h
[1]; single oral 8 mg/kg, fed, geometric mean (%CV)
  CL/F: 66.7 (28.4) (6) L/h
[2]; MAD 1.0 mg/kg
  subjects experiencing TEAEs: 2 subjects
[2]; MAD 3.0 mg/kg
  subjects experiencing TEAEs: none
[2]; MAD 9.0 mg/kg
  subjects experiencing TEAEs: none
[2]; MAD 20 mg/kg
  subjects experiencing TEAEs: 2 subjects
[2]; MAD up to 20 mg/kg/day
  maximum tolerated dose (MTD): not reached
[2]; any SAD or MAD dose group
  severe adverse events: no severe adverse events
[2]; human, in vivo, oral, highest dose tested, 14 days
  NOAEL at 14 days: 20 mg/kg/day
[2]; one subject, 20 mg/kg/day MAD cohort, dosing halted
  liver finding thought to be drug related: mild elevations of liver enzymes
[3]; MAD 1.0 mg/kg, Day 1 (predose), baseline
  Blood glucose: 86 ± 1 md/dL
[3]; MAD 1.0 mg/kg, Day 2 predose
  Blood glucose: 87 ± 2 md/dL
[3]; MAD 1.0 mg/kg, Day 3 predose
  Blood glucose: 86 ± 2 md/dL
[3]; MAD 1.0 mg/kg, Day 7 predose
  Blood glucose: 84 ± 2 md/dL
[3]; MAD 1.0 mg/kg, Day 12 predose
  Blood glucose: 83 ± 1 md/dL
[3]; MAD 1.0 mg/kg, Day 14 (predose)
  Blood glucose: 84 ± 1 md/dL
[3]; MAD 1.0 mg/kg, Day 17 (3 days after last dose)
  Blood glucose: 86 ± 1 md/dL
[3]; MAD 1.0 mg/kg, Day 21 follow-up
  Blood glucose: 90 ± 3 md/dL
[3]; MAD 1.0 mg/kg, Day -1, baseline
  Blood glucose: 90 ± 2 md/dL
[3]; MAD 1.0 mg/kg, Screening, baseline
  Blood glucose: 92 ± 1 md/dL
[3]; MAD 3.0 mg/kg, Day 1 (predose), baseline
  Blood glucose: 87 ± 1 md/dL
[3]; MAD 3.0 mg/kg, Day 2 predose
  Blood glucose: 87 ± 1 md/dL
[3]; MAD 3.0 mg/kg, Day 3 predose
  Blood glucose: 84 ± 2 md/dL
[3]; MAD 3.0 mg/kg, Day 7 predose
  Blood glucose: 82 ± 1 md/dL
[3]; MAD 3.0 mg/kg, Day 12 predose
  Blood glucose: 83.1 ± 1.4 md/dL
[3]; MAD 3.0 mg/kg, Day 14 (predose)
  Blood glucose: 81 ± 2 md/dL
[3]; MAD 3.0 mg/kg, Day 17 (3 days after last dose)
  Blood glucose: 84 ± 1 md/dL
[3]; MAD 3.0 mg/kg, Day 21 follow-up
  Blood glucose: 91 ± 2 md/dL
[3]; MAD 3.0 mg/kg, Day -1, baseline
  Blood glucose: 90 ± 1 md/dL
[3]; MAD 3.0 mg/kg, Screening, baseline
  Blood glucose: 90.1 ± 1.5 md/dL
[3]; MAD 9.0 mg/kg, Day 1 (predose), baseline
  Blood glucose: 89 ± 2 md/dL
[3]; MAD 9.0 mg/kg, Day 2 predose
  Blood glucose: 87 ± 1 md/dL
[3]; MAD 9.0 mg/kg, Day 3 predose
  Blood glucose: 88 ± 2 md/dL
[3]; MAD 9.0 mg/kg, Day 7 predose
  Blood glucose: 87 ± 2 md/dL
[3]; MAD 9.0 mg/kg, Day 12 predose
  Blood glucose: 84 ± 2 md/dL
[3]; MAD 9.0 mg/kg, Day 14 (predose)
  Blood glucose: 84 ± 2 md/dL
[3]; MAD 9.0 mg/kg, Day 17 (3 days after last dose)
  Blood glucose: 85 ± 2 md/dL
[3]; MAD 9.0 mg/kg, Day 21 follow-up
  Blood glucose: 88 ± 2 md/dL
[3]; MAD 9.0 mg/kg, Day -1, baseline
  Blood glucose: 89 ± 1 md/dL
[3]; MAD 9.0 mg/kg, Screening, baseline
  Blood glucose: 89 ± 3 md/dL
[3]; MAD 20.0 mg/kg, Day 1 (predose), baseline
  Blood glucose: 87 ± 1 md/dL
[3]; MAD 20.0 mg/kg, Day 2 predose
  Blood glucose: 84 ± 1 md/dL
[3]; MAD 20.0 mg/kg, Day 3 predose
  Blood glucose: 83 ± 1 md/dL
[3]; MAD 20.0 mg/kg, Day 7 predose
  Blood glucose: 82 ± 1 md/dL
[3]; MAD 20.0 mg/kg, Day 12 predose
  Blood glucose: 80 ± 2 md/dL
[3]; MAD 20.0 mg/kg, Day 14 (predose)
  Blood glucose: 80 ± 2 md/dL
[3]; MAD 20.0 mg/kg, Day 17 (3 days after last dose)
  Blood glucose: 81 ± 2 md/dL
[3]; MAD 20.0 mg/kg, Day 21 follow-up
  Blood glucose: 91 ± 3 md/dL
[3]; MAD 20.0 mg/kg, Day -1, baseline
  Blood glucose: 89 ± 1 md/dL
[3]; MAD 20.0 mg/kg, Screening, baseline
  Blood glucose: 90 ± 3 md/dL
[3]; all dose groups SAD and MAD, any time point
  fasting insulin and glucose levels vs placebo: did not differ from placebo
